Several values for one entry are separate records, joined by “and”; a condition that tells them apart may be missing. Identical values can stand only once.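 Assay format: 96-well plates, 48-hour exposure. At the GI50, growth is halved. Definition used: TGI = concentration required for complete inhibition of growth.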
How the values were obtained:
Test in all cases: NCI anticancer screen, dose series, 48 h
EKVX NSCLC = tested on: EKVX NSCLC
HCT-15 colon = tested on: HCT-15 colon
HL-60(TB) leukemia = tested on: HL-60(TB) leukemia
KM12 colon = tested on: KM12 colon
MALME-3M melanoma = tested on: MALME-3M melanoma
MDA-MB-231 breast = tested on: MDA-MB-231 breast
NCI-H226 lung = tested on: NCI-H226 lung
SK-MEL-2 melanoma = tested on: SK-MEL-2 melanoma
SK-MEL-5 melanoma = tested on: SK-MEL-5 melanoma
U251 CNS = tested on: U251 CNS

| Compound | GI50 (EKVX NSCLC) | TGI (EKVX NSCLC) | GI50 (HCT-15 colon) | TGI (HCT-15 colon) | GI50 (HL-60(TB) leukemia) | TGI (HL-60(TB) leukemia) | GI50 (KM12 colon) | TGI (KM12 colon) | GI50 (MALME-3M melanoma) | TGI (MALME-3M melanoma) | GI50 (MDA-MB-231 breast) | TGI (MDA-MB-231 breast) | GI50 (NCI-H226 lung) | TGI (NCI-H226 lung) | GI50 (SK-MEL-2 melanoma) | TGI (SK-MEL-2 melanoma) | GI50 (SK-MEL-5 melanoma) | TGI (SK-MEL-5 melanoma) | GI50 (U251 CNS) | TGI (U251 CNS) |
| --- | --- | --- | --- | --- | --- | --- | --- | --- | --- | --- | --- | --- | --- | --- | --- | --- | --- | --- | --- | --- |
| Nc1nc(N)c2nc(CNc3ccc(C(=O)CC(CCC(=O)O)C(=O)O)cc3)cnc2n1 (stereo not given) | 0.517 µM | > 100 µM | 0.168 µM | > 100 µM | < 0.018 µM | > 100 µM | 0.232 µM | > 100 µM | 1.43 µM | > 100 µM | > 100 µM | > 100 µM | 1.07 µM | > 100 µM | > 100 µM | > 100 µM | 0.45 µM | > 100 µM | 0.215 µM | > 100 µM |
| COc1ccc(-c2coc3ncnc(N)c23)cc1 | > 25 µM | > 25 µM | > 25 µM | > 25 µM | > 25 µM | > 25 µM | > 25 µM | > 25 µM | > 25 µM | > 25 µM | > 25 µM | > 25 µM | > 25 µM | > 25 µM | > 25 µM | > 25 µM | > 25 µM | > 25 µM | > 25 µM | > 25 µM |
| NC1=NC(=O)N2CC12 (stereo not given) | 123 µM | > 100 µM and 603 µM | 301 µM | > 100 µM and 1140 µM | 13.7 µM |  | 436 µM | > 100 µM and 1070 µM | 57.8 µM and 79.7 µM | > 100 µM and 202 µM | 107 µM | 244 µM | 184 µM | > 100 µM and 896 µM | 63.3 µM | > 100 µM and 329 µM | 638 µM | > 100 µM and 1450 µM | 154 µM | > 100 µM and 620 µM |
| COc1cc(N2CCC(N3CCN(C)CC3)CC2)ccc1Nc1ncc(Cl)c(Nc2ccccc2P(C)(C)=O)n1 | 0.472 µM | > 100 µM | 2.97 µM | > 40.4 µM | 1.67 µM | > 35.6 µM | 2.69 µM | > 100 µM | 7.66 µM | > 100 µM | 0.625 µM | 31.7 µM | 0.417 µM | 5.21 µM | 2.67 µM | 30.6 µM | 11.9 µM | > 100 µM | 3.79 µM | > 100 µM |
| O=S(=O)(/C=C/C=C/S(=O)(=O)c1ccccc1)c1ccccc1 |  | 3.53 µM | 0.189 µM | 2.7 µM and 0.795 µM | 0.188 µM | 2.04 µM and 0.518 µM | 11.1 µM | 4.25 µM and 23.5 µM | 1.54 µM | 2.8 µM and 3.01 µM | 1.87 µM | 3.37 µM and 3.73 µM | 1.24 µM | 4.85 µM | 1.4 µM | 5.68 µM and 3.47 µM | 1.49 µM | 2.68 µM and 2.98 µM | 2.7 µM | 11 µM |
| Cc1cc(Cl)ccc1Nc1sc(C(=O)c2cc3cc(Cl)ccc3o2)c(N)c1C#N |  | > 100 µM |  | > 100 µM |  | > 100 µM |  | > 100 µM |  | > 100 µM |  | > 55 µM |  | > 100 µM |  | > 100 µM |  | > 100 µM |  | 16.2 µM |
| COc1ccc(C(=O)/C=C/c2cc3ccccc3[nH]c2=O)cc1 | 22.6 µM | > 94.3 µM | 20.3 µM | > 59.6 µM | 21.9 µM | > 100 µM | 16.5 µM | 28.7 µM | 40.8 µM | > 100 µM | 22.3 µM | > 56.4 µM | 22.1 µM | > 100 µM | 23 µM | > 73.8 µM | 25 µM | > 56.6 µM | 17.5 µM | 43 µM |
| COc1cccc(-c2nn(-c3ccccc3)cc2-c2ccnc(NCCNS(=O)(=O)c3ccc(C(F)(F)F)cc3)c2)c1 | 3.16 µM | > 100 µM | 3.04 µM | > 100 µM | 1.97 µM | 5.63 µM | 3.02 µM | 16.7 µM | 2.33 µM | 6.81 µM | 3.15 µM | > 100 µM | 5.77 µM | > 100 µM | 2.42 µM | 6.47 µM | 1.72 µM | 3.11 µM | 3.54 µM | 13.9 µM |
| CCCCCCN(CCCCCC)C(=N)c1ccnc2ccccc12 | 8.58 µM | 22.9 µM | 3.82 µM | 16.6 µM | 2.93 µM | 16.8 µM | 3.95 µM | 15.2 µM | 2.25 µM | 5.64 µM | 5.13 µM | 21.3 µM | 11.8 µM | 26.7 µM | 3.66 µM | 12.2 µM | 1.96 µM | 3.45 µM | 3.31 µM | 10.9 µM |
| O=c1ncc(-c2ccc(C(F)(F)F)cc2)c(NC2CCCCCC2)[nH]1 |  |  | 22.1 µM | 64.6 µM | 21 µM | 46.4 µM | 19.9 µM | 44.3 µM | 17.2 µM | 33.7 µM | 16.6 µM | 38.1 µM | 19.4 µM | 46 µM |  |  | 16.6 µM | 30.6 µM |  |  |
| CCN(Cc1ccc(F)cc1)c1ccc(CO)c(Cl)c1 | 17.5 µM | 57.5 µM | 5.15 µM | 50.7 µM | 3.63 µM | 23.3 µM | 16.3 µM | 40.3 µM | 15 µM | 35.9 µM | 15.6 µM | 51.5 µM | 0.0306 µM | 0.116 µM | 2.03 µM | 13.9 µM | 1.86 µM | 15.2 µM | 0.654 µM | 15.1 µM |
| C[C@H]1CCC/C=C/[C@@H]2C[C@H](O)C[C@H]2[C@H](O)[C@H](S(=O)c2ccc(O)cc2)CC(=O)O1 (stereo not given in full) | 0.0824 µM | > 36.9 µM | 0.0443 µM | 1.69 µM | 0.0338 µM | 0.139 µM | < 0.0146 µM |  | 0.0202 µM | 0.0709 µM | 0.0245 µM | 0.0533 µM | 0.0344 µM | 0.146 µM | 0.0485 µM | 0.504 µM |  | 0.121 µM | 0.0403 µM | > 77.4 µM |
| CS(=O)(=O)CCNCc1ccc(-c2ccc3ncnc(Nc4ccc(OCc5ccccc5)c(C(F)(F)F)c4)c3c2)o1 | 7.87 µM | > 25 µM | 4.65 µM | 10.2 µM | 5.65 µM | 13.3 µM | 5.48 µM | 11.3 µM | 4.57 µM | 9.53 µM | 4.55 µM | 8.66 µM | 7.75 µM | > 25 µM | 5.68 µM | 11.4 µM | 3.55 µM | 6.87 µM | 4.49 µM | 8.92 µM |

Source: PubChem BioAssay (NCI)
